Earlier results, collected in patent EP4368198A1, “COMPOSITION FOR DELIVERING A PROTEIN OR A POLYPEPTIDE TO A EUKARYOTIC CELL” (Klinikum der Universität München, priority 2022, dated 2024).

Details: normalized, most hydrophobic residue 100, glycine 0, Monera et al. 1995

## O=C(O)[C@@H]1CCCN1 [Proline (pro), Proline]
  hydrophobicity index At pH 7: -46 (used pH 2)
